Assay results taken from the NIST ThermoML archive (doi:10.1016/j.tca.2004.11.022).

Assays:
[1] = xn = mol fraction of the nth substance listed; conditions: 101 kPa, Liquid; for mass density: Vibrating tube method; for speed of sound: Pulse-echo method
[2] = molar heat capacity at constant pressure; xn = mol fraction of the nth substance listed; conditions: 101 kPa, Liquid, Small sample (50 mg) DSC

CCCCCCCCC [nonane] + COC(=O)OC
Conditions	mass density [kg/m3]	molar heat capacity at constant pressure [J/K/mol]	speed of sound [m/s]
[1], 288.15 K, x2 = 0.05335	729.39	–	–
[1], 288.15 K, x2 = 0.1009	736.94	–	–
[1], 288.15 K, x2 = 0.1998	754.47	–	–
[1], 288.15 K, x2 = 0.2963	774.22	–	–
[1], 288.15 K, x2 = 0.3965	798.13	–	–
[1], 288.15 K, x2 = 0.4978	826.3	–	–
[1], 288.15 K, x2 = 0.5983	859.19	–	–
[1], 288.15 K, x2 = 0.6976	897.72	–	–
[1], 288.15 K, x2 = 0.7982	944.58	–	–
[1], 288.15 K, x2 = 0.8985	1002.3	–	–
[1], 293.15 K, x2 = 0.05335	725.45	–	–
[1], 293.15 K, x2 = 0.1009	732.86	–	–
[1], 293.15 K, x2 = 0.1998	750.26	–	–
[1], 293.15 K, x2 = 0.2963	769.82	–	–
[1], 293.15 K, x2 = 0.3965	793.41	–	–
[1], 293.15 K, x2 = 0.4978	821.39	–	–
[1], 293.15 K, x2 = 0.5983	853.92	–	–
[1], 293.15 K, x2 = 0.6976	892.23	–	–
[1], 293.15 K, x2 = 0.7982	938.72	–	–
[1], 293.15 K, x2 = 0.8985	996.2	–	–
[1], 298.15 K, x2 = 0.05335	721.48	–	1198.5
[1], 298.15 K, x2 = 0.1009	728.79	–	1191.8
[1], 298.15 K, x2 = 0.1998	746.03	–	1180
[1], 298.15 K, x2 = 0.2963	765.4	–	1170.5
[1], 298.15 K, x2 = 0.3965	788.73	–	1162.4
[1], 298.15 K, x2 = 0.4978	816.45	–	1156.8
[1], 298.15 K, x2 = 0.5983	848.67	–	1153.4
[1], 298.15 K, x2 = 0.6976	886.73	–	1153.5
[1], 298.15 K, x2 = 0.7982	932.9	–	1158.2
[1], 298.15 K, x2 = 0.8985	990.1	–	1171.2
[1], 308.15 K, x2 = 0.05335	713.45	–	–
[1], 308.15 K, x2 = 0.1009	720.68	–	–
[1], 308.15 K, x2 = 0.1998	737.48	–	–
[1], 308.15 K, x2 = 0.2963	756.46	–	–
[1], 308.15 K, x2 = 0.3965	779.36	–	–
[1], 308.15 K, x2 = 0.4978	806.49	–	–
[1], 308.15 K, x2 = 0.5983	838.24	–	–
[1], 308.15 K, x2 = 0.6976	875.62	–	–
[1], 308.15 K, x2 = 0.7982	921.26	–	–
[1], 308.15 K, x2 = 0.8985	977.7	–	–
[2], 288.15 K, x2 = 0.05262	–	273.59	–
[2], 288.15 K, x2 = 0.1012	–	267.97	–
[2], 288.15 K, x2 = 0.1514	–	262.27	–
[2], 288.15 K, x2 = 0.2001	–	256.97	–
[2], 288.15 K, x2 = 0.297	–	247.1	–
[2], 288.15 K, x2 = 0.4018	–	237.24	–
[2], 288.15 K, x2 = 0.452	–	232.75	–
[2], 288.15 K, x2 = 0.5014	–	228.4	–
[2], 288.15 K, x2 = 0.5514	–	223.85	–
[2], 288.15 K, x2 = 0.6024	–	218.72	–
[2], 288.15 K, x2 = 0.6477	–	213.45	–
[2], 288.15 K, x2 = 0.6978	–	206.69	–
[2], 288.15 K, x2 = 0.7944	–	191.68	–
[2], 288.15 K, x2 = 0.845	–	183.74	–
[2], 288.15 K, x2 = 0.9016	–	175.65	–
[2], 288.15 K, x2 = 0.9486	–	169.8	–
[2], 298.15 K, x2 = 0.05262	–	277.51	–
[2], 298.15 K, x2 = 0.1012	–	271.68	–
[2], 298.15 K, x2 = 0.1514	–	265.73	–
[2], 298.15 K, x2 = 0.2001	–	260.11	–
[2], 298.15 K, x2 = 0.297	–	249.53	–
[2], 298.15 K, x2 = 0.4018	–	238.51	–
[2], 298.15 K, x2 = 0.452	–	233.42	–
[2], 298.15 K, x2 = 0.5014	–	228.22	–
[2], 298.15 K, x2 = 0.5514	–	222.78	–
[2], 298.15 K, x2 = 0.6024	–	217.1	–
[2], 298.15 K, x2 = 0.6477	–	211.64	–
[2], 298.15 K, x2 = 0.6978	–	205.13	–
[2], 298.15 K, x2 = 0.7944	–	191.78	–
[2], 298.15 K, x2 = 0.845	–	184.48	–
[2], 298.15 K, x2 = 0.9016	–	176.75	–
[2], 298.15 K, x2 = 0.9486	–	170.87	–
[2], 308.15 K, x2 = 0.05262	–	281.91	–
[2], 308.15 K, x2 = 0.1012	–	275.81	–
[2], 308.15 K, x2 = 0.1514	–	269.66	–
[2], 308.15 K, x2 = 0.2001	–	263.87	–
[2], 308.15 K, x2 = 0.297	–	252.77	–
[2], 308.15 K, x2 = 0.4018	–	241.06	–
[2], 308.15 K, x2 = 0.452	–	235.55	–
[2], 308.15 K, x2 = 0.5014	–	230.02	–
[2], 308.15 K, x2 = 0.5514	–	224.27	–
[2], 308.15 K, x2 = 0.6024	–	218.19	–
[2], 308.15 K, x2 = 0.6477	–	212.66	–
[2], 308.15 K, x2 = 0.6978	–	206.01	–
[2], 308.15 K, x2 = 0.7944	–	192.97	–
[2], 308.15 K, x2 = 0.845	–	185.93	–
[2], 308.15 K, x2 = 0.9016	–	178.33	–
[2], 308.15 K, x2 = 0.9486	–	172.4	–
